Measurements taken from ChEMBL document CHEMBL1201862, “PubChem BioAssay data set” (2004).
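Test compounds were applied to cells in 96-well plates for 48 hours at 5 doses. GI50: concentration for 50% inhibition of growth.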 Active and inactive are the calls of the source. Rule as the data show it: active = GI50 up to about 1.1 µM and inactive = higher.

Assays:
Assay in all cases: NCI anticancer screen, dose series, 48 h
[1] = test system: TK-10
[2] = test system: EKVX
[3] = test system: NCI-H23
[4] = test system: CAKI-1
[5] = test system: HCC 2998
[6] = test system: A549
[7] = test system: K562
[8] = test system: OVCAR-4
[9] = test system: SNB-19
[10] = test system: HCT-15
[11] = test system: CCRF-CEM
[12] = test system: HOP-62
[13] = test system: HCT-116
[14] = test system: T47D
[15] = test system: SF-295
[16] = test system: DU-145
[17] = test system: COLO 205
[18] = test system: SF-539
[19] = test system: HL-60
[20] = test system: HOP-92

SMILES	GI50 [1]	GI50 [2]	GI50 [3]	GI50 [4]	GI50 [5]	GI50 [6]	GI50 [7]	GI50 [8]	GI50 [9]	GI50 [10] [µM]	GI50 [11]	GI50 [12]	GI50 [13]	GI50 [14]	GI50 [15]	GI50 [16]	GI50 [17]	GI50 [18]	GI50 [19]	GI50 [20]
COC(=O)[C@]12CSC[C@H]1C[C@H](c1ccccc1OC)N2	> 100 µM (inactive)	> 100 µM (inactive)	> 100 µM (inactive)	> 100 µM (inactive)	> 100 µM (inactive)	> 100 µM (inactive)	> 100 µM (inactive)	> 100 µM (inactive)	> 100 µM (inactive)	> 100	> 100 µM (inactive)	> 100 µM (inactive)	> 100 µM (inactive)	> 100 µM (inactive)	> 100 µM (inactive)	> 100 µM (inactive)	> 100 µM (inactive)	> 100 µM (inactive)	–	–
Cc1ccc2c(=O)cc(Cc3cccs3)[nH]c2n1	> 100 µM (inactive)	> 100 µM (inactive)	> 100 µM (inactive)	> 100 µM (inactive)	–	> 100 µM (inactive)	> 100 µM (inactive)	> 100 µM (inactive)	> 100 µM (inactive)	> 100	> 100 µM (inactive)	> 100 µM (inactive)	> 100 µM (inactive)	> 100 µM (inactive)	> 100 µM (inactive)	> 100 µM (inactive)	> 100 µM (inactive)	–	> 100 µM (inactive)	–
O=C(c1ccc(Cl)cc1)N(C(=O)N1CCCCC1)c1ccccc1	–	33.7 µM (inactive)	85.5 µM (inactive)	> 100 µM (inactive)	–	–	31 µM (inactive)	–	> 100 µM (inactive)	79.4	23.7 µM (inactive)	–	> 100 µM (inactive)	17.6 µM (inactive)	–	> 100 µM (inactive)	85.9 µM (inactive)	> 100 µM (inactive)	20.1 µM (inactive)	–
NS(=O)(=O)c1ccc(Nc2c3ccccc3nc3c(C(=O)N4CCN(CCO)CC4)cccc23)cc1	> 100 µM (inactive)	> 100 µM (inactive)	> 100 µM (inactive)	> 100 µM (inactive)	> 100 µM (inactive)	> 100 µM (inactive)	53.2 µM (inactive)	> 100 µM (inactive)	> 100 µM (inactive)	> 100	95.3 µM (inactive)	> 100 µM (inactive)	> 100 µM (inactive)	–	> 100 µM (inactive)	–	> 100 µM (inactive)	> 100 µM (inactive)	29.2 µM (inactive)	> 100 µM (inactive)
C/C(=N\N=C(N)N)c1sc(-c2nc(C)c(/C(C)=N/N=C(N)N)s2)nc1C	> 100 µM (inactive)	> 100 µM (inactive)	> 100 µM (inactive)	> 100 µM (inactive)	> 100 µM (inactive)	> 100 µM (inactive)	> 67.8 µM (inactive)	> 85.5 µM (inactive)	> 100 µM (inactive)	> 46	> 60.7 µM (inactive)	> 100 µM (inactive)	> 100 µM (inactive)	–	> 100 µM (inactive)	–	> 52.5 µM (inactive)	> 100 µM (inactive)	24.4 µM (inactive)	> 100 µM (inactive)
CN(C)CCNc1c([N+](=O)[O-])sc2ccc(Cl)cc12	91 µM (inactive)	44.7 µM (inactive)	23.2 µM (inactive)	–	15.7 µM (inactive)	11.9 µM (inactive)	7.52 µM (inactive)	12.6 µM (inactive)	26.2 µM (inactive)	7.76	4.36 µM (inactive)	12.2 µM (inactive)	–	23.6 µM (inactive)	17.6 µM (inactive)	80.4 µM (inactive)	8.75 µM (inactive)	14 µM (inactive)	> 100 µM (inactive)	–
Clc1ccc(-n2nnc(C3=NCCN3)c2-c2ccccc2)cc1	66.8 µM (inactive)	> 100 µM (inactive)	> 100 µM (inactive)	> 100 µM (inactive)	> 100 µM (inactive)	> 100 µM (inactive)	> 100 µM (inactive)	> 100 µM (inactive)	> 100 µM (inactive)	> 100	> 100 µM (inactive)	> 100 µM (inactive)	> 100 µM (inactive)	–	> 100 µM (inactive)	–	> 100 µM (inactive)	> 100 µM (inactive)	> 100 µM (inactive)	68.7 µM (inactive)
CC(=O)Nc1nnc(S(C)(=O)=O)s1	> 100 µM (inactive)	> 100 µM (inactive)	> 100 µM (inactive)	–	–	> 100 µM (inactive)	> 100 µM (inactive)	–	> 100 µM (inactive)	> 100	> 100 µM (inactive)	> 100 µM (inactive)	> 100 µM (inactive)	–	> 100 µM (inactive)	> 100 µM (inactive)	> 100 µM (inactive)	> 100 µM (inactive)	> 100 µM (inactive)	> 100 µM (inactive)
